# Results from paper PMC2994877, “A Full Pharmacological Analysis of the Three Turkey β-Adrenoceptors and Comparison with the Human β-Adrenoceptors” (PLoS ONE, 2010).
# Read-outs that look alike come from different tables or passages of the source.
# Key:
# [1] = molecular target: T1, turkey β4C-adrenoceptor (tβ4C) (Meleagris gallopavo, UniProt P43141); assay: cell-based; assay type: binding
# T1 construct: expressed in transfected cells
# [2] = molecular target: T2, turkey β3C-adrenoceptor (tβ3C) (Meleagris gallopavo, UniProt A0A803YLI8); assay: 3H-CGP12177 whole cell binding, CHO tβ3C cells
# Human β3-adrenoceptor = settings: Human β3, given for comparison; ref 25 and 30; cited from earlier work
# Human β2-adrenoceptor = molecular target: Human β2-adrenoceptor; parameters: method as in PMID 15655528, PMID 20590599; settings: Human β2, given for comparison; ref 25 and 30; cited from earlier work
# [3] = molecular target: T2, turkey β3C-adrenoceptor (tβ3C); assay: CRE-SPAP production, CHO tβ3C cells; assay type: cell-based; settings: CHO tβ3C cells
# [4] = competition with 3H-CGP12177, whole cells, CHO tβ4C, given as log KD, mean ± s.e.m., read-out: Log KD (converted)
# [5] = competition with 3H-CGP12177, whole cells, CHO tβ3C, given as log KD, mean ± s.e.m., read-out: Log KD (converted)
# [6] = competition with 3H-CGP12177, whole cells, CHO tβ4C, given as log KD, mean ± s.e.m.
# [7] = competition with 3H-CGP12177, whole cells, CHO tβ3C, given as log KD, mean ± s.e.m.
# T2 sequence (A0A803YLI8 entry or part of it): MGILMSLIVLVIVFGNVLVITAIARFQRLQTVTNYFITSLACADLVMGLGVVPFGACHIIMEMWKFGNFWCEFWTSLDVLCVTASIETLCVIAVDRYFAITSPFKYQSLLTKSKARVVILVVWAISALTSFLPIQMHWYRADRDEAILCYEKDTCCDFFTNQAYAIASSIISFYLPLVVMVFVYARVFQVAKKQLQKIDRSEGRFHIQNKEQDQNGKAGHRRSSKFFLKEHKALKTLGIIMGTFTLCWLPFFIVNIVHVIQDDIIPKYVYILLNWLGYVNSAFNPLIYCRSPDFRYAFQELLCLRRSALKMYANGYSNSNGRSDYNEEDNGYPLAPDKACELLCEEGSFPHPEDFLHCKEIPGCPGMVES
# T1 sequence (P43141 whole entry): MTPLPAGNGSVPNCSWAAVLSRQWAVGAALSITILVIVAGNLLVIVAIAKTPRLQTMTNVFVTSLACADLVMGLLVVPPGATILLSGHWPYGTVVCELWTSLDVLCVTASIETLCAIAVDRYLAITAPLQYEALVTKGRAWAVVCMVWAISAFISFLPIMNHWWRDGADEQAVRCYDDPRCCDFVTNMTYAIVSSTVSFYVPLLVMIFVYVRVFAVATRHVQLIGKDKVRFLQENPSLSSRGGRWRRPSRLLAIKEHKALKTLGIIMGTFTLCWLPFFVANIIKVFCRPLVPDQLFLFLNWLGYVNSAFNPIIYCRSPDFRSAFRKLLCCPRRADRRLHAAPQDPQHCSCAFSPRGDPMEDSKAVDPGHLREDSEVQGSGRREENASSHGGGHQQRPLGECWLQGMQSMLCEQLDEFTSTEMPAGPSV
SMILES,"Kd [1, 4]","Kd [2, 5]",Log KD (Human β3-adrenoceptor),Kd [2],other results
CC(C)NCC(O)COc1ccc(CC(N)=O)cc1 (stereo not drawn) [Atenolol],17400 nM,17800 nM,–,–,–
CC(C)NCC(O)COc1ccc(CCOCC2CC2)cc1 (stereo not drawn) [Betaxalol],575 nM,–,−5.97,–,–
COCCNC(=O)COc1ccc(OCCNC[C@H](O)COc2ccccc2)cc1 [ZD7114],–,–,−6.78,–,"Log KD (Human β2-adrenoceptor): −7.31; Log KD [1, 6]: −7.59±0.04; Log KD [2, 7]: −6.59±0.10"
CC(C)NCC(O)COc1ccc(COCCOC(C)C)cc1 (stereo not drawn) [Bisoprolol],550 nM,2630 nM,–,–,–
OC(CNCC(O)C1CCc2cc(F)ccc2O1)C1CCc2cc(F)ccc2O1 (stereo not drawn) [Nebivolol],1.48 nM,16.6 nM,−7.04,–,Log KD (Human β2-adrenoceptor): −7.92
O=C(NCCNCC(O)COc1ccc(O)cc1)N1CCOCC1 (stereo not drawn) [Xamoterol],–,–,–,2290 nM,Kd [1]: 589 nM
O=C(O)COc1ccc(OCCNC[C@H](O)COc2ccccc2)cc1 [ICI215001],–,–,−6.63,–,"Log KD [1, 6]: −6.55±0.06; Log KD [2, 7]: −5.31±0.09"
COCCc1ccc(OCC(O)CNC(C)C)cc1 (stereo not drawn) [Metoprolol],–,–,–,1100 nM,Kd [1]: 1660 nM
"CCc1ccccc1OC[C@@H](O)CN[C@H]1CCCc2ccccc21.O=C(O)C(=O)O [SR59230A, 3-(2-Ethylphenoxy)-1-[(1,S)-1,2,3,4-tetrahydronapth-1-ylamino]-2S-2-propanol oxalate]",–,–,−7.37,–,"Log KD (Human β2-adrenoceptor): −8.45; Log KD [1, 6]: −7.65±0.06; Log KD [2, 7]: −7.96±0.08"
CC(C)(C)NCC(O)c1cc(O)cc(O)c1 (stereo not drawn) [Terbutaline],33900 nM,–,–,2400 nM,–
COc1ccccc1OCCNCC(O)COc1cccc2[nH]c3ccccc3c12 (stereo not drawn) [Carvedilol],0.123 nM,–,–,–,–
CC(C)OC(=O)c1cc2c(OCC(O)CNC(C)(C)C)cccc2[nH]1 (stereo not drawn) [SDZ21009],–,–,−7.10,–,"Log KD (Human β2-adrenoceptor): −10.28; Log KD [1, 6]: −9.06±0.07; Log KD [2, 7]: −10.17±0.08"
Cn1cc(C(F)(F)F)nc1-c1ccc(OCC(O)CNCCOc2ccc(O)c(C(N)=O)c2)cc1 (stereo not drawn) [CGP20712A],–,–,–,3980 nM,"Kd ([3]; Log KD CGP20712A, vs agonist BRL37344, CRE-SPAP): 3090 nM; Kd ([3]; Log KD CGP20712A, vs agonist CGP12177, CRE-SPAP): 2690 nM; Kd ([3]; Log KD CGP20712A, vs agonist adrenaline, CRE-SPAP): 4570 nM; Kd ([3]; Log KD CGP20712A, vs agonist cimaterol, CRE-SPAP): 3470 nM; Kd ([3]; Log KD CGP20712A, vs agonist clenbuterol, CRE-SPAP): 1780 nM; Kd ([3]; Log KD CGP20712A, vs agonist dobutamine, CRE-SPAP): 7410 nM; Kd ([3]; Log KD CGP20712A, vs agonist fenoterol, CRE-SPAP): 2450 nM; Kd ([3]; Log KD CGP20712A, vs agonist formoterol, CRE-SPAP): 3630 nM; Kd ([3]; Log KD CGP20712A, vs agonist isoprenaline, CRE-SPAP): 3720 nM; Kd ([3]; Log KD CGP20712A, vs agonist noradrenaline, CRE-SPAP): 5250 nM; Kd ([3]; Log KD CGP20712A, vs agonist salbutamol, CRE-SPAP): 3240 nM; Kd ([3]; Log KD CGP20712A, vs agonist salmeterol, CRE-SPAP): 6310 nM"
CC(C)NCC(O)COc1cccc2[nH]ccc12 (stereo not drawn) [Pindolol],5.25 nM,–,–,1.95 nM,–
C=CCc1ccccc1OCC(O)CNC(C)C (stereo not drawn) [Alprenolol],14.1 nM,–,−6.93,3.63 nM,–
CC(C)NCC(O)c1ccc(NS(C)(=O)=O)cc1 (stereo not drawn) [Sotalol],692 nM,537 nM,−5.05,–,–
CC(C)(C)NC[C@H](O)COc1nsnc1N1CCOCC1 [Timolol],2 nM,–,−6.80,–,–
Cc1ccc(OCC(O)C(C)NC(C)C)c2c1CCC2 (stereo not drawn) [ICI118551],–,–,–,1.17 nM,"Kd ([3]; Log KD ICI118551, vs agonist BRL37344, CRE-SPAP): 0.49 nM; Kd ([3]; Log KD ICI118551, vs agonist CGP12177, CRE-SPAP): 0.316 nM; Kd ([3]; Log KD ICI118551, vs agonist adrenaline, CRE-SPAP): 1.62 nM; Kd ([3]; Log KD ICI118551, vs agonist cimaterol, CRE-SPAP): 0.398 nM; Kd ([3]; Log KD ICI118551, vs agonist clenbuterol, CRE-SPAP): 0.339 nM; Kd ([3]; Log KD ICI118551, vs agonist dobutamine, CRE-SPAP): 1.15 nM; Kd ([3]; Log KD ICI118551, vs agonist fenoterol, CRE-SPAP): 0.457 nM; Kd ([3]; Log KD ICI118551, vs agonist formoterol, CRE-SPAP): 0.513 nM; Kd ([3]; Log KD ICI118551, vs agonist isoprenaline, CRE-SPAP): 2.51 nM; Kd ([3]; Log KD ICI118551, vs agonist noradrenaline, CRE-SPAP): 1.38 nM; Kd ([3]; Log KD ICI118551, vs agonist salbutamol, CRE-SPAP): 0.49 nM; Kd ([3]; Log KD ICI118551, vs agonist salmeterol, CRE-SPAP): 0.617 nM"
CCCC(=O)Nc1ccc(OCC(O)CNC(C)C)c(C(C)=O)c1 (stereo not drawn) [Acebutolol],3890 nM,4070 nM,–,–,–
CC(CCc1ccccc1)NCC(O)c1ccc(O)c(C(N)=O)c1 (stereo not drawn) [Labetolol],–,–,−6.18,–,"Log KD [1, 6]: −7.70±0.04; Log KD [2, 7]: −7.42±0.04"
CC(C)(C)NCC(O)c1ccccc1Cl (stereo not drawn) [Tulobuterol],3470 nM,–,−4.72,229 nM,Log KD (Human β2-adrenoceptor): −6.83
CC(C)NCC(O)COc1cccc2[nH]c3ccccc3c12 (stereo not drawn) [Carazolol],0.0537 nM,0.012 nM,−8.35,–,–
COc1ccc(CCNC[C@H](O)c2ccc(O)cc2)cc1OC [Denopamine],1120 nM,2340 nM,−5.30,–,Log KD (Human β2-adrenoceptor): −5.83
